Target: T1, COX-1 (ovine) (Ovis aries, UniProt P05979)
T1 sequence (P05979 25-600): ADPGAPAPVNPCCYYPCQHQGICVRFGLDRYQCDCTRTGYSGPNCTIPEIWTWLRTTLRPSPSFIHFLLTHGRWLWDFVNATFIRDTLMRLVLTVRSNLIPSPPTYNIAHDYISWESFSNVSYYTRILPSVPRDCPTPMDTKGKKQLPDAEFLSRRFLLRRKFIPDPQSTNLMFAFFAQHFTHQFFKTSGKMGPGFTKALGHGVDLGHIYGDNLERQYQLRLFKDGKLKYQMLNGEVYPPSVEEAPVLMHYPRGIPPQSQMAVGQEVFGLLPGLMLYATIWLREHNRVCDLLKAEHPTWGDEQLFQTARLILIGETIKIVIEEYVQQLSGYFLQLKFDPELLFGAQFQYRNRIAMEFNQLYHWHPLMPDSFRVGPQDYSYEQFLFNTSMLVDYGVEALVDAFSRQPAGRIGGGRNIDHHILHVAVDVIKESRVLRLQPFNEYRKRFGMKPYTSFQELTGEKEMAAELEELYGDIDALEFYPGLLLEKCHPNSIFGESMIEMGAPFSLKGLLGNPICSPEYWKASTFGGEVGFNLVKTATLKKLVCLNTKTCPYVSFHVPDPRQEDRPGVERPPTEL
Assay: 12-HHT formation from arachidonic acid, HPLC
Assay type: biochemical

SMILES	IC50 [µM]
CCCCCc1cc(OC(=O)c2c(O)cc(OC)cc2CCCCC)cc(O)c1C(=O)O [compound 8, perlatolic acid]	> 30
CCCCCC(=O)Cc1cc(O)cc(O)c1C(=O)Oc1cc(O)c(C(=O)O)c(CCCCC)c1 [compound 9, olivetoric acid]	> 30
CCCCCC(=O)Cc1cc(O)cc2c1C(=O)Oc1cc(O)c(C(=O)O)c(CCCCC)c1O2 [compound 2, physodic acid]	> 30
